According to PubChem BioAssay (NCI):
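All cell lines were grown in 96-well plates and treated with compound for 48 hours. Abbreviation: GI50, concentration required for 50% inhibition of growth. Definition used: TGI = concentration required for complete inhibition of growth.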

What was measured:
Experiment in all cases: NCI anticancer screen, dose series, 48 h
OVCAR-8 ovarian = tested on: OVCAR-8 ovarian
HCT-15 colon = tested on: HCT-15 colon
MCF7 breast = tested on: MCF7 breast
SNB-75 CNS = tested on: SNB-75 CNS
TK-10 renal = tested on: TK-10 renal
HOP-62 NSCLC = tested on: HOP-62 NSCLC
SNB-19 CNS = tested on: SNB-19 CNS
NCI/ADR-RES ovarian = tested on: NCI/ADR-RES ovarian
T-47D breast = tested on: T-47D breast
SR leukemia = tested on: SR leukemia
SK-MEL-5 melanoma = tested on: SK-MEL-5 melanoma
SW-620 colon = tested on: SW-620 colon
HS 578T breast = tested on: HS 578T breast
EKVX NSCLC = tested on: EKVX NSCLC
UO-31 renal = tested on: UO-31 renal
SF-295 CNS = tested on: SF-295 CNS
HL-60(TB) leukemia = tested on: HL-60(TB) leukemia
BT-549 breast = tested on: BT-549 breast
RPMI-8226 leukemia = tested on: RPMI-8226 leukemia
MALME-3M melanoma = tested on: MALME-3M melanoma
NCI-H226 lung = tested on: NCI-H226 lung
DU-145 prostate = tested on: DU-145 prostate
CCRF-CEM leukemia = tested on: CCRF-CEM leukemia
A549 NSCLC = tested on: A549 NSCLC
MOLT-4 leukemia = tested on: MOLT-4 leukemia
HOP-92 NSCLC = tested on: HOP-92 NSCLC
PC-3 prostate = tested on: PC-3 prostate
IGROV1 ovarian = tested on: IGROV1 ovarian
SK-OV-3 ovarian = tested on: SK-OV-3 ovarian
786-0 renal = tested on: 786-0 renal
MDA-MB-435 = tested on: MDA-MB-435
SF-539 CNS = tested on: SF-539 CNS
UACC-257 melanoma = tested on: UACC-257 melanoma
SK-MEL-28 melanoma = tested on: SK-MEL-28 melanoma
HT29 colon = tested on: HT29 colon
ACHN renal = tested on: ACHN renal
U251 CNS = tested on: U251 CNS
LOX IMVI melanoma = tested on: LOX IMVI melanoma
HCT-116 colon = tested on: HCT-116 colon
OVCAR-3 ovarian = tested on: OVCAR-3 ovarian
A498 renal = tested on: A498 renal
KM12 colon = tested on: KM12 colon
COLO 205 colon = tested on: COLO 205 colon
SF-268 CNS = tested on: SF-268 CNS
MDA-MB-231 breast = tested on: MDA-MB-231 breast
HCC-2998 colon = tested on: HCC-2998 colon
UACC-62 melanoma = tested on: UACC-62 melanoma
K-562 leukemia = tested on: K-562 leukemia
SN12C renal = tested on: SN12C renal
RXF 393 renal = tested on: RXF 393 renal
OVCAR-5 ovarian = tested on: OVCAR-5 ovarian
NCI-H23 lung = tested on: NCI-H23 lung
M14 melanoma = tested on: M14 melanoma
CAKI-1 renal = tested on: CAKI-1 renal
SK-MEL-2 melanoma = tested on: SK-MEL-2 melanoma
NCI-H460 lung = tested on: NCI-H460 lung
OVCAR-4 ovarian = tested on: OVCAR-4 ovarian

## O=C(Nc1ccccc1)Nc1nc2ccc([N+](=O)[O-])cc2s1
OVCAR-8 ovarian
  GI50: 2.8 µM
  TGI: 14.5 µM
HCT-15 colon
  GI50: 1.65 µM
  TGI: 10.5 µM
MCF7 breast
  GI50: 1.42 µM
  TGI: 10.8 µM
SNB-75 CNS
  GI50: 1.87 µM
  TGI: 5.74 µM
TK-10 renal
  GI50: 2.83 µM
  TGI: 10.7 µM
HOP-62 NSCLC
  GI50: 2.93 µM
  TGI: 11.5 µM
SNB-19 CNS
  GI50: 1.74 µM
  TGI: 12.9 µM
NCI/ADR-RES ovarian
  GI50: 1.79 µM
  TGI: 8.31 µM
T-47D breast
  GI50: 0.533 µM
  TGI: 9.77 µM
SR leukemia
  GI50: 0.746 µM
  TGI: 4.17 µM
SK-MEL-5 melanoma
  GI50: 0.471 µM
  TGI: 1.75 µM
SW-620 colon
  GI50: 2.97 µM
  TGI: 12.7 µM
HS 578T breast
  GI50: 2.72 µM
  TGI: 12.4 µM
EKVX NSCLC
  GI50: 1.95 µM
  TGI: 11.9 µM
UO-31 renal
  GI50: 1.56 µM
  TGI: 11.5 µM
SF-295 CNS
  GI50: 1.23 µM
  TGI: 3.11 µM
HL-60(TB) leukemia
  GI50: 1.46 µM
  TGI: 3.57 µM
BT-549 breast
  GI50: 2.02 µM
  TGI: 6.5 µM
RPMI-8226 leukemia
  GI50: 0.69 µM
  TGI: 3.47 µM
MALME-3M melanoma
  GI50: 0.751 µM
  TGI: 7.71 µM
NCI-H226 lung
  GI50: 1.37 µM
  TGI: 4.3 µM
DU-145 prostate
  GI50: 3.33 µM
  TGI: 16.7 µM
CCRF-CEM leukemia
  GI50: 1.29 µM
  TGI: 13.1 µM
A549 NSCLC
  GI50: 2.53 µM
  TGI: 14.4 µM
MOLT-4 leukemia
  GI50: 1.96 µM
  TGI: 7.14 µM
HOP-92 NSCLC
  GI50: 0.324 µM
  TGI: 2.61 µM
PC-3 prostate
  GI50: 1.69 µM
  TGI: 9.89 µM
IGROV1 ovarian
  GI50: 2.49 µM
  TGI: 14.9 µM
SK-OV-3 ovarian
  GI50: 2.33 µM
  TGI: 9.58 µM
786-0 renal
  GI50: 2.41 µM
  TGI: 9.94 µM
MDA-MB-435
  GI50: 2.16 µM
  TGI: 9.74 µM
SF-539 CNS
  GI50: 2.12 µM
  TGI: 10.4 µM
UACC-257 melanoma
  GI50: 1.49 µM
  TGI: 7.7 µM
SK-MEL-28 melanoma
  GI50: 2.45 µM
  TGI: 12.1 µM
HT29 colon
  GI50: 3.46 µM
  TGI: 12.1 µM
ACHN renal
  GI50: 2.04 µM
  TGI: 10.2 µM
U251 CNS
  GI50: 1.97 µM
  TGI: 12.9 µM
LOX IMVI melanoma
  GI50: 1.22 µM
  TGI: 3.68 µM
HCT-116 colon
  GI50: 2.22 µM
  TGI: 10.1 µM
OVCAR-3 ovarian
  GI50: 1.91 µM
  TGI: 11.6 µM
A498 renal
  GI50: 0.254 µM
  TGI: 1.71 µM
KM12 colon
  GI50: 1.77 µM
  TGI: 10.6 µM
COLO 205 colon
  GI50: 2.05 µM
  TGI: 4.38 µM
SF-268 CNS
  GI50: 2.65 µM
  TGI: 13.3 µM
MDA-MB-231 breast
  GI50: 1.82 µM
  TGI: 4.56 µM
HCC-2998 colon
  GI50: 1.38 µM
  TGI: 9.09 µM
UACC-62 melanoma
  GI50: 0.86 µM
  TGI: 8.13 µM
K-562 leukemia
  GI50: 1.47 µM
  TGI: 10.8 µM
SN12C renal
  GI50: 1.58 µM
  TGI: 6.79 µM
RXF 393 renal
  GI50: 0.548 µM
  TGI: 3.02 µM
OVCAR-5 ovarian
  GI50: 4.33 µM
  TGI: 17.4 µM
NCI-H23 lung
  GI50: 0.649 µM
  TGI: 3.57 µM
M14 melanoma
  GI50: 2.64 µM
  TGI: 8.48 µM
CAKI-1 renal
  GI50: 1.62 µM
  TGI: 7.91 µM
SK-MEL-2 melanoma
  GI50: 1.69 µM
  TGI: 5.15 µM
NCI-H460 lung
  GI50: 2.06 µM
  TGI: 10.5 µM
OVCAR-4 ovarian
  GI50: 1.31 µM
  TGI: 12.4 µM
